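Method: 48-hour compound exposure of cells in 96-well plates, five concentrations, linear interpolation of endpoints. Here, GI50 denotes the concentration required for 50% inhibition of growth. TGI is the concentration that stops growth completely.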
Assays:
Assay in all cases: NCI-60 cell line screen, 48 h
[1] = system: SR leukemia
[2] = system: UACC-257 melanoma
[3] = system: UACC-62 melanoma
[4] = system: M14 melanoma
[5] = system: MDA-MB-435
[6] = system: ACHN renal
[7] = system: SK-OV-3 ovarian
[8] = system: SF-539 CNS
[9] = system: HOP-92 NSCLC
[10] = system: LOX IMVI melanoma

| Structure (SMILES) | GI50 [1] | TGI [1] | GI50 [2] | TGI [2] | GI50 [3] | TGI [3] | GI50 [4] | TGI [4] | GI50 [5] | TGI [5] | GI50 [6] | TGI [6] | GI50 [7] | TGI [7] | GI50 [8] | TGI [8] | GI50 [9] | TGI [9] | TGI [10] | GI50 [10] |
| --- | --- | --- | --- | --- | --- | --- | --- | --- | --- | --- | --- | --- | --- | --- | --- | --- | --- | --- | --- | --- |
| O=C1Nc2c(C(F)(F)F)cccc2[C@]1(c1ccc(O)cc1)c1ccc(OC(F)(F)F)cc1 | 6.6 µM | 39.8 µM | 11.8 µM | 24.9 µM | 11.9 µM | 25 µM | 14.2 µM | 29.2 µM | 13.6 µM | 26.6 µM | 9.82 µM | 21.5 µM | 17.3 µM | 36.5 µM | 14.4 µM | 27.6 µM | 5.82 µM | 21.5 µM | – | – |
| O=C1CCC2(c3ccc(F)cc3)Nc3cc(Cl)ccc3N12 (configuration not stated) | – | > 100 µM | – | > 100 µM | – | > 100 µM | – | > 100 µM | – | – | – | > 100 µM | – | > 100 µM | – | > 100 µM | – | – | > 100 µM | – |
| CC(C)(CC(=O)Nc1ccccc1)C(=O)O | – | > 100 µM | – | > 100 µM | – | > 100 µM | – | > 100 µM | – | > 100 µM | – | > 100 µM | – | > 100 µM | – | > 100 µM | – | > 100 µM | > 100 µM | – |
| Oc1ccc(CN2CCC(N3CCCCC3)CC2)c2cccnc12 | 16.7 µM | > 100 µM | 27.6 µM | 99.3 µM | 4.87 µM | 67.5 µM | 5.75 µM | > 100 µM | 4.63 µM | > 100 µM | 5.95 µM | > 100 µM | 24.8 µM | > 100 µM | – | – | 4.51 µM | > 100 µM | > 100 µM | 5.32 µM |
| OCC(O)CC[CH2][Sn]([Br])([c]1ccccc1)[c]1ccccc1 (configuration not stated) | > 100 µM | > 100 µM | > 100 µM | > 100 µM | 65.8 µM | > 100 µM | > 100 µM | > 100 µM | – | – | > 100 µM | > 100 µM | > 100 µM | > 100 µM | > 100 µM | > 100 µM | > 100 µM | > 100 µM | > 100 µM | > 100 µM |
| CCOc1cc2c(Cl)ncnc2c(OCC)c1OCC | 1.18 µM | 4.31 µM | 6.95 µM | 22 µM | 6.99 µM | 20.2 µM | 6.24 µM | 20.1 µM | 6.06 µM | 21.2 µM | 14.1 µM | 27.1 µM | 16.5 µM | 30.5 µM | 14 µM | 27.8 µM | 3.67 µM | 14.2 µM | 10 µM | 3.39 µM |
| COc1cc(C2=C(c3ccccc3)COC2=O)cc(OC)c1OC | – | 0.295 µM | > 25 µM | > 94.8 µM | 1.63 µM | > 100 µM | 1.79 µM | > 27.7 µM | 0.168 µM | 0.645 µM | > 43.5 µM | > 100 µM | 4.56 µM | > 100 µM | 1.26 µM | > 51.4 µM | 13.6 µM | > 100 µM | > 100 µM | 18.6 µM |
| COC(=O)C1Cc2c(n(Cc3ccccc3)c3ccccc23)C(CCC(=O)O)N1C(C)C (configuration not stated) | – | > 100 µM | – | > 100 µM | – | > 100 µM | – | > 100 µM | – | – | – | > 100 µM | – | > 100 µM | – | > 100 µM | – | > 100 µM | > 100 µM | – |
| COC1/C=C\C=C(/C)C(=O)NC2=CC(=O)C(=O)C(=C2O)CC(C)CC(OC)C(O)C(C)/C=C(\C)C1OC(N)=O (configuration not stated) | – | 25 µM | – | > 36.3 µM | – | > 32.6 µM | – | > 53.2 µM | – | 11.8 µM | – | > 82.1 µM | – | > 100 µM | – | 22.5 µM | – | 21 µM | 13.9 µM | – |
| O=C(/C(Br)=C/c1ccccc1)c1ccccc1 | 1.41 µM | 8.74 µM | 1.86 µM | 4.49 µM | 1.94 µM | 3.81 µM | 1.36 µM | 3.23 µM | 1.96 µM | 4.67 µM | 1.22 µM | 2.48 µM | 16 µM | 34.6 µM | 2.12 µM | 4.72 µM | 1.87 µM | 4.28 µM | 1.59 µM | 0.433 µM |
| O=C(/C=C/c1c(O)ccc2ccccc12)c1cccc(O)c1 | – | > 100 µM | – | > 100 µM | – | 69.1 µM | – | > 100 µM | – | – | – | > 100 µM | – | > 100 µM | – | > 100 µM | – | 99.5 µM | > 72.1 µM | – |
| COc1ccc(-c2cc(=O)c3ccc(O)cc3o2)cc1OC | – | > 100 µM | – | > 100 µM | – | > 100 µM | – | > 100 µM | – | > 100 µM | – | > 100 µM | – | > 100 µM | – | > 100 µM | – | > 100 µM | > 100 µM | – |
| Cn1c2ccccc2c2c(-c3ccccc3)[n+]3ccncc3nc21 | – | – | 59.5 µM | > 100 µM | > 100 µM | > 100 µM | > 100 µM | > 100 µM | 94.3 µM | > 100 µM | > 100 µM | > 100 µM | > 100 µM | > 100 µM | 48.3 µM | > 100 µM | 96.6 µM | > 100 µM | > 100 µM | > 100 µM |
| CC(C)c1nc(CN(C)C(=O)N[C@H](C(=O)N[C@@H](Cc2ccccc2)C[C@H](O)[C@H](Cc2ccccc2)NC(=O)OCc2cncs2)C(C)C)cs1 | – | – | 18.4 µM | 38 µM | 18.5 µM | 34.9 µM | 18 µM | 41.7 µM | 20.1 µM | 57.4 µM | 29.1 µM | 82.3 µM | 35.8 µM | > 100 µM | 2.33 µM | 49.4 µM | 20.8 µM | 49.5 µM | 40.1 µM | 18.9 µM |
| COC12C=C(C)C(CC1)CC2C(=O)O (configuration not stated) | – | > 100 µM | – | > 100 µM | – | > 100 µM | – | > 100 µM | – | – | – | > 100 µM | – | > 100 µM | – | > 100 µM | – | > 100 µM | > 100 µM | – |
| CC(=O)CNC(=O)OC(C)(C)C | – | > 100 µM | – | > 100 µM | – | > 100 µM | – | > 100 µM | – | – | – | > 100 µM | – | > 100 µM | – | > 100 µM | – | > 100 µM | – | – |
